Patent publication US6737383B1, “Herbicidal oxadiazolidines” (priority 1999, dated 2004)

Assays:
[1] = system: bedstraw; assay: Test B pre/postemergence bedstraw; format: in vivo, Galium aparine
Summary of the method: (§1)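 Test chemicals in a non-phytotoxic solvent mixture with surfactant were sprayed preemergence onto planted seeds and postemergence onto plants 2 to 18 cm tall (1- to 4-leaf stage). After twelve to sixteen days in a greenhouse, injury was visually rated against untreated controls from 0 (no effect) to 10 (complete control).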

[2] = system: blackgrass; assay: Test B pre/postemergence blackgrass; format: in vivo, Alopecurus myosuroides
Summary of the method: as §1

[3] = system: surinam grass; assay: Test B pre/postemergence surinam grass; format: in vivo, Brachiaria decumbens
Summary of the method: as §1

[4] = system: cocklebur; assay: Test B pre/postemergence cocklebur; format: in vivo, Xanthium strumarium
Summary of the method: as §1

[5] = system: corn; assay: Test B pre/postemergence corn; format: in vivo, Zea mays
Summary of the method: as §1

[6] = system: crabgrass; assay: Test B pre/postemergence crabgrass; format: in vivo, Digitaria sanguinalis
Summary of the method: as §1

[7] = system: rape; assay: Test B pre/postemergence rape; format: in vivo, Brassica napus
Summary of the method: as §1

[8] = system: soybean; assay: Test B pre/postemergence soybean; format: in vivo, Glycine max
Summary of the method: as §1

[9] = system: sugar beet; assay: Test B pre/postemergence sugar beet; format: in vivo, Beta vulgaris
Summary of the method: as §1

[10] = system: velvetleaf; assay: Test B pre/postemergence velvetleaf; format: in vivo, Abutilon theophrasti
Summary of the method: as §1

[11] = system: wheat; assay: Test B pre/postemergence wheat; format: in vivo, Triticum aestivum
Summary of the method: as §1

[12] = system: wild oat; assay: Test B pre/postemergence wild oat; format: in vivo, Avena fatua
Summary of the method: as §1

[13] = system: purple nutsedge; assay: Test B pre/postemergence purple nutsedge; format: in vivo, Cyperus rotundus
Summary of the method: as §1

[14] = system: rice; assay: Test B flood test rice; format: in vivo, Oryza sativa
Summary of the method: (§2)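 Plants were grown to the 2-leaf stage before treatment with test chemical, then held in a greenhouse for twelve to sixteen days. Injury was visually rated against untreated controls on a 0–10 scale, where 0 is no effect and 10 is complete control.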

[15] = system: smallflower flatsedge; assay: Test B flood test smallflower flatsedge; format: in vivo, Cyperus difformis
Summary of the method: as §2

[16] = system: duck salad; assay: Test B flood test duck salad; format: in vivo, Heteranthera limosa
Summary of the method: as §2

[17] = system: bamyardgrass; assay: Test B flood test barnyardgrass; format: in vivo, Echinochloa crus-galli
Summary of the method: as §2

[18] = Postemergence, Rate 62 g/ha, scale 0 to 10, 0 is no effect, 10 is complete control
[19] = Postemergence, Rate 250 g/ha, scale 0 to 10, 0 no effect, 10 complete control
[20] = Preemergence, Rate 62 g/ha, scale 0 to 10, 0 is no effect, 10 is complete control
[21] = Preemergence, Rate 125 g/ha, scale 0 to 10 (0 no effect, 10 complete control)
[22] = Preemergence, Rate 250 g/ha, scale of 0 to 10 where 0 is no effect and 10 is complete control
[23] = Preemergence, Rate 500 g/ha, scale 0 (no effect) to 10 (complete control)
[24] = Rate 125 g/ha, Postemergence, scale 0 to 10, 0 no effect, 10 complete control
[25] = Rate 500 g/ha, Postemergence, 0 to 10 scale (0 no effect, 10 complete control)
[26] = Rate 125 g/ha, Postemergence section (flood test species), scale 0 to 10, 0 no effect, 10 complete control
[27] = Rate 500 g/ha, Postemergence section of Table B, 0 to 10 scale (0 no effect, 10 complete control)
[28] = flood test, listed under Postemergence, Rate 250 g/ha, scale 0 to 10, 0 no effect, 10 complete control

Cc1ccccc1-n1c(=O)on(C(=O)N(c2ccc(F)cc2F)C(C)C)c1=O [Compound 25]
2: B. signalgrass plant response rating [3, 25] | Cocklebur plant response rating [4, 19] | Cocklebur plant response rating [4, 24] | Crabgrass plant response rating [6, 18] | Soybean plant response rating [8, 18] | Sugarbeets plant response rating [9, 23] | Plant response rating, Wild oats [12, 21]
10: Plant response rating, Crabgrass [6, 22] | Crabgrass plant response rating [6, 23]
8: Plant response rating, Blackgrass [2, 22] | Blackgrass plant response rating [2, 23] | Plant response rating, Crabgrass [6, 21] | Barnyardgrass plant response rating [17, 27]
6: Blackgrass plant response rating [2, 19] | Plant response rating, Wild oats [12, 22]
1: Wild oats plant response rating [12, 19]
9: Crabgrass plant response rating [6, 19] | Crabgrass plant response rating [6, 25]
5: Blackgrass plant response rating [2, 24] | Cocklebur plant response rating [4, 25] | Plant response rating, Crabgrass [6, 20]
0: Plant response rating, Bedstraw [1, 20] | Plant response rating, Bedstraw [1, 21] | Plant response rating, Bedstraw [1, 22] | B. signalgrass plant response rating [3, 18] | B. signalgrass plant response rating [3, 19] | Plant response rating, B. signalgrass [3, 20] | Plant response rating, B. signalgrass [3, 21] | B. signalgrass plant response rating [3, 24] | Cocklebur plant response rating [4, 18] | Plant response rating, Cocklebur [4, 20] | Plant response rating, Cocklebur [4, 21] | Plant response rating, Cocklebur [4, 22] | Cocklebur plant response rating [4, 23] | Corn plant response rating [5, 18] | Corn plant response rating [5, 19] | Plant response rating, Corn [5, 20] | Plant response rating, Corn [5, 21] | Plant response rating, Corn [5, 22] | Corn plant response rating [5, 23] | Corn plant response rating [5, 24] | Corn plant response rating [5, 25] | Rape plant response rating [7, 18] | Rape plant response rating [7, 19] | Plant response rating, Rape [7, 20] | Plant response rating, Rape [7, 21] | Plant response rating, Rape [7, 22] | Rape plant response rating [7, 23] | Rape plant response rating [7, 24] | Rape plant response rating [7, 25] | Plant response rating, Soybean [8, 20] | Plant response rating, Soybean [8, 21] | Plant response rating, Soybean [8, 22] | Soybean plant response rating [8, 23] | Sugarbeets plant response rating [9, 18] | Sugarbeets plant response rating [9, 19] | Plant response rating, Sugarbeets [9, 20] | Plant response rating, Sugarbeets [9, 21] | Plant response rating, Sugarbeets [9, 22] | Sugarbeets plant response rating [9, 24] | Velvetleaf plant response rating [10, 18] | Velvetleaf plant response rating [10, 19] | Plant response rating, Velvetleaf [10, 20] | Plant response rating, Velvetleaf [10, 21] | Plant response rating, Velvetleaf [10, 22] | Velvetleaf plant response rating [10, 23] | Velvetleaf plant response rating [10, 24] | Wheat plant response rating [11, 18] | Wheat plant response rating [11, 19] | Plant response rating, Wheat [11, 20] | Plant response rating, Wheat [11, 21] | Plant response rating, Wheat [11, 22] | Wheat plant response rating [11, 23] | Wheat plant response rating [11, 24] | Wild oats plant response rating [12, 18] | Wild oats plant response rating [12, 24] | Nutsedge plant response rating [13, 18] | Nutsedge plant response rating [13, 19] | Plant response rating, Nutsedge [13, 20] | Plant response rating, Nutsedge [13, 21] | Plant response rating, Nutsedge [13, 22] | Nutsedge plant response rating [13, 23] | Nutsedge plant response rating [13, 24] | Rice plant response rating [14, 18] | Rice plant response rating [14, 26] | Rice plant response rating [14, 28] | S. Flatsedge plant response rating [15, 18] | S. Flatsedge plant response rating [15, 26] | S. Flatsedge plant response rating [15, 28] | Ducksalad plant response rating [16, 18] | Ducksalad plant response rating [16, 26] | Ducksalad plant response rating [16, 27] | Ducksalad plant response rating [16, 28] | Barnyardgrass plant response rating [17, 18] | Barnyardgrass plant response rating [17, 26] | Barnyardgrass plant response rating [17, 28]
3: Bedstraw plant response rating [1, 23] | Plant response rating, Blackgrass [2, 20] | Plant response rating, Blackgrass [2, 21] | Soybean plant response rating [8, 19] | Soybean plant response rating [8, 24] | Rice plant response rating [14, 27]
7: Bedstraw plant response rating [1, 19] | Bedstraw plant response rating [1, 25] | Blackgrass plant response rating [2, 25] | Plant response rating, B. signalgrass [3, 22] | B. signalgrass plant response rating [3, 23] | Crabgrass plant response rating [6, 24] | Wild oats plant response rating [12, 23]
4: Bedstraw plant response rating [1, 18] | Bedstraw plant response rating [1, 24] | Blackgrass plant response rating [2, 18]
